Values of other authors, collected in US9624424B2, “Large stokes shift dyes” (LIFE TECHNOLOGIES CORPORATION, priority 2009, dated 2017).

Row | extinction coefficient around 605 nm (commercial dyes emitting at 750-800 nm) | Compound
1 | ~15,000 M^−1cm^−1 | CCN1C(=CC=CC=CC=CC2=[N+](CCCCCC(=O)O)c3ccc(S(=O)(=O)O)cc3C2(C)C)C(C)(C)c2cc(S(=O)(=O)[O-])ccc21 [Cy7]
2 | ~15,000 M^−1cm^−1 | CC(C)(C)c1cc(/C=C/C=C/C=C2/N(CCCS(=O)(=O)[O-])c3ccc(S(=O)(=O)[O-])cc3C2(C)CCCC(=O)O)c2ccc(=[N+](CCCS(=O)(=O)[O-])CCCS(=O)(=O)[O-])cc-2o1.[Na+].[Na+].[Na+] (stereo not shown) [Dy734]
3 | ~15,000 M^−1cm^−1 | CCN1c2cc3c(cc2C(C)=CC1(C)C)C(=CC=CC=CC1=[N+](CCCCCC(=O)O)c2ccc(S(=O)(=O)[O-])cc2C1(C)C)C=C(C(C)(C)C)O3 [Dy750]
4 | ~15,000 M^−1cm^−1 | AlexaFluor 750 [AF750]
